Drawing on patent publication US12473289B2, “Heterocyclic compounds as delta-5 desaturase inhibitors and methods of use” (Amgen Inc., priority 2019, dated 2025), this text covers IC50 for 28 molecules.

The structures appear in SMILES notation. pIC50: −log10 of the molar value.

The experiment addresses Delta-5-Desaturase (D5D) (Homo sapiens (Human), UniProt O60427). As to the kind of experiment: In vitro measurement of Delta-5-Desaturase inhibitory activity using DGLA-CoA and Arachidonyl-CoA mass spectrometric assays. The format is biochemical. Conditions: membrane preparations of D5D-overexpressing HEK293 6E cells; averaged over at least two independent runs. As for the experimental part: In vitro Measurement of Delta-5-Desaturase Inhibitory Activity using DGLA-CoA and Arachidonyl-CoA Mass Spectrometric Assays
Membrane preparations of D5D-overexpressing HEK293 6E cells were prepared in which the total protein concentration was 5.6 mg/mL. Stock D5D membrane preparations were diluted in D5D assay buffer (25 mM 2-amino-2-(hydroxymethyl)-1,3-propanediol, pH 7.5 containing 10 mM MgCl2, 1 mM octyl glucoside (SigmaAldrich 0-8001), 1 mM tris(2-carboxyethyl)phosphine hydrochloride (SigmaAldrich 646547)) to a final D5D membrane concentration of 10 μg/mL in an assay plate containing serially diluted test compounds. To 15 μL of this D5D preparation was added 15 μL of a substrate solution (0.25 mM NADH (nicotinamide adenine dinucleotide, Roche Diag. 10107735001), 0.25 mM adenosine triphosphate (SigmaAldrich A-3377), 0.05 mM coenzyme A hydrate (SigmaAldrich C-4282), and 0.01 mM DGLA (dihomo-g-linolenic acid, Sigma E-4504) in the same D5D assay buffer. After one-hour incubation at ambient temperature acetonitrile (30 μL) was added to quench the reaction and plates were centrifuged for 10 min @3,000 rpm. Mass spectrometric analysis involved a Rapidfire 360 SPE system coupled to an ABSciex API4000 Triple Quadrupole mass spectrometer using a C18 SPE cartridge (G9203-80105) with ionization in negative mode (solvent A=100% water; solvent B=100% acetonitrile, each solvent containing 5 mM ammonium acetate). DGLA-CoA and Arachidonyl-CoA were detected by multiple reaction monitoring (MRM) of the doubly charged parent ions at m/z 526.6 and 525.6, respectively.
Sx is value from unknown sample, So is value from DMSO alone and Sc is value from no enzyme well. For CRC analysis, the % of inhibitions were analyzed with 4 Parameter Logistic Model or Sigmoidal Dose-Response Model using XLfit (IDBS, Guilford, UK). The potency of the test item was expressed as IC50 nM, corresponding to the test item concentration able to inhibit the 50% of the enzyme maximal response. IC50 values were averaged values determined by at least two independent runs.
This assay may be used to test any of the compounds described herein to assess and characterize a compound's ability to inhibit D5D.

Chain of Delta-5-Desaturase (D5D) (O60427 whole entry, species assumed): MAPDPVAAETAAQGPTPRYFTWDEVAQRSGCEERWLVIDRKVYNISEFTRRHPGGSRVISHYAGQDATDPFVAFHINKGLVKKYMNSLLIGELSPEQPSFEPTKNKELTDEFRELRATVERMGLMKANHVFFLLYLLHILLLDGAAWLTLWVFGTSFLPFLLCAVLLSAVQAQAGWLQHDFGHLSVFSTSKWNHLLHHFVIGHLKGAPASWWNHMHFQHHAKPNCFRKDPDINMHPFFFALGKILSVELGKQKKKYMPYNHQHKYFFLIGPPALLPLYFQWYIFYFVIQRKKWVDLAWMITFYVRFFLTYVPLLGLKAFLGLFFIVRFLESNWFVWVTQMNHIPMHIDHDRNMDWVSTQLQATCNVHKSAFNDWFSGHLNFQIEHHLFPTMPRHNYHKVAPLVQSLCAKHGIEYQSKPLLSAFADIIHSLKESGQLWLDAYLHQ

Usually pIC50 stands for the negative decadic logarithm of the IC50, by convention in mol/L. A lower pIC50 goes with a high IC50. `[2H]C([2H])([2H])Oc1ccn2c(=O)c(-c3cnn(CCC(F)(F)F)c3)c(C(F)(F)F)nc2c1` [Example 1-61, 8-(methyloxy-d3)-2-(trifluoromethyl)-3-(1-(3,3,3-trifluoropropyl)-1H-pyrazol-4-yl)-4H-pyrido[1,2-a]pyrimidin-4-one] had a pIC50 of 7.94.
The molecule `COc1ccn2c(=O)c(-c3cnn(CC4CC4)c3)c(C(F)(F)F)nc2c1` [Example 39-45, 3-[1-(cyclopropylmethyl)-1H-pyrazol-4-yl]-8-methoxy-2-(trifluoromethyl)-4H-pyrido[1,2-a]pyrimidin-4-one] showed a pIC50 of 7.32.
Consider `CCCn1cc(-c2c(C(F)(F)F)nc3ccccn3c2=O)cn1` [Example 5-4, 3-(1-propyl-1H-pyrazol-4-yl)-2-(trifluoromethyl)-4H-pyrido[1,2-a]pyrimidin-4-one], for which the pIC50 is 6.70.
Molecule `Cc1cc2nc(C(F)(F)F)c(-c3cnn(CC(F)(F)C(F)(F)F)c3)c(=O)n2cc1F` [Example 39-56, 7-fluoro-8-methyl-3-[1-(2,2,3,3,3-pentafluoropropyl)-1H-pyrazol-4-yl]-2-(trifluoromethyl)-4H-pyrido[1,2-a]pyrimidin-4-one] had a pIC50 of 7.72.
Under `COC(=O)c1ccc2nc(C(F)(F)F)c(-c3cnn(CC(F)(F)C(F)(F)F)c3)c(=O)n2c1` [Example 39-16, methyl 4-oxo-3-[1-(2,2,3,3,3-pentafluoropropyl)-1H-pyrazol-4-yl]-2-(trifluoromethyl)-4H-pyrido[1,2-a]pyrimidine-7-carboxylate] stands 4.45; under `COc1ccn2c(=O)c(-c3ccc(OCCF)cc3)c(C(F)(F)F)nc2n1` [Example 1-57, 3-(4-(2-fluoroethoxy)phenyl)-8-methoxy-2-(trifluoromethyl)-4H-pyrimido[1,2-a]pyrimidin-4-one], 6.65.
Molecule `O=c1c(-c2cnn(C3CC3)c2)c(C(F)(F)F)nc2ccccn12` [Example 5-3, 3-(1-cyclopropyl-1H-pyrazol-4-yl)-2-(trifluoromethyl)-4H-pyrido[1,2-a]pyrimidin-4-one] showed a pIC50 of 5.28. Compared with the last molecule, the pIC50 is 1.37 log units lower.
Under `O=c1c(-c2cnn(CC(F)(F)C(F)(F)F)c2)c(C(F)(F)F)nc2cnccn12` [Example 39-25, 3-[1-(2,2,3,3,3-pentafluoropropyl)-1H-pyrazol-4-yl]-2-(trifluoromethyl)-4H-pyrazino[1,2-a]pyrimidin-4-one] stands 8.43.
Turning to `COc1ccn2c(=O)c(-c3ccc(OCC#N)cc3)c(C(F)(F)F)nc2n1` [Example 1-40, (4-(8-methoxy-4-oxo-2-(trifluoromethyl)-4H-pyrimido[1,2-a]pyrimidin-3-yl)phenoxy)acetonitrile], the negative logarithm of the IC50 (pIC50) was 7.73.
The result for `O=C(O)c1ccn2c(=O)c(-c3cnn(CC(F)(F)C(F)(F)F)c3)c(C(F)(F)F)nc2c1` [Example 1-21, 4-oxo-3-(1-(2,2,3,3,3-pentafluoropropyl)-1H-pyrazol-4-yl)-2-(trifluoromethyl)-4H-pyrido[1,2-a]pyrimidine-8-carboxylic acid] reads 5.47.
Under `COc1cnn2c(=O)c(-c3cnn(CC(F)(F)C(F)(F)F)c3)c(C(F)(F)F)nc2c1` [Example 34, 8-Methoxy-3-[1-(2,2,3,3,3-pentafluoropropyl)-1H-pyrazol-4-yl]-2-(trifluoromethyl)-4H-pyrimido[1,2-b]pyridazin-4-one] stands 6.93; under `COc1ccn2c(=O)c(-c3cnn(CCC(F)(F)F)c3)c(C(F)F)nc2c1` [Example 1-14, 2-(difluoromethyl)-8-methoxy-3-(1-(3,3,3-trifluoropropyl)-1H-pyrazol-4-yl)-4H-pyrido[1,2-a]pyrimidin-4-one], 7.64; under `COc1ccn2c(=O)c(-c3cnn(-c4cccc(F)c4)c3)c(C(F)(F)F)nc2c1` [Example 1-18, 3-(1-(3-fluorophenyl)-1H-pyrazol-4-yl)-8-methoxy-2-(trifluoromethyl)-4H-pyrido[1,2-a]pyrmidin-4-one], 7.60.
Turning to `COc1cc2nc(C(F)(F)F)c(-c3ccc(OCC(F)(F)F)cc3)c(=O)n2cc1F` [Example 39-57, 7-fluoro-8-methoxy-3-[4-(2,2,2-trifluoroethoxy)phenyl]-2-(trifluoromethyl)-4H-pyrido[1,2-a]pyrimidin-4-one], the negative logarithm of the IC50 (pIC50) was 8.39.
`COc1ccn2c(=O)c(-c3ccc(OCC(F)(F)C(F)(F)F)cc3)c(C(F)(F)F)nc2c1` [Example 22, 8-Methoxy-3-(4-(2,2,3,3,3-pentafluoropropoxy)phenyl)-2-(trifluoromethyl)-4H-pyrido[1,2-a]pyrimidin-4-one] had a negative-log IC50 (pIC50) of 8.40.
The result for `CN(C)C(=O)c1ccn2c(=O)c(-c3ccc(OCC(F)(F)F)cc3)c(C(F)(F)F)nc2c1` [Example 12-3, N,N-dimethyl-4-oxo-3-(4-(2,2,2-trifluoroethoxy)phenyl)-2-(trifluoromethyl)-4H-pyrido[1,2-a]pyrimidine-8-carboxamide] reads 5.60; that for `Cc1cnn2c(=O)c(-c3cnn(CC4CC4(F)F)c3)c(C(F)(F)F)nc2c1` (stereo not shown) [Example 39-53, 3-{1-[(2,2-difluorocyclopropyl)methyl]-1H-pyrazol-4-yl}-8-methyl-2-(trifluoromethyl)-4H-pyrimido[1,2-b]pyridazin-4-one], 6.43.
Under `NC(=O)c1ccn2c(=O)c(-c3ccc(OCC(F)(F)F)cc3)c(C(F)(F)F)nc2c1` [Example 12-2, 4-oxo-3-(4-(2,2,2-trifluoroethoxy)phenyl)-2-(trifluoromethyl)-4H-pyrido[1,2-a]pyrimidine-8-carboxamide] stands 8.28.
Molecule `O=c1c(-c2cnn(CC(F)(F)C(F)(F)F)c2)c(C(F)(F)F)nc2ccccn12` [Example 39-5, 3-[1-(2,2,3,3,3-pentafluoropropyl)-1H-pyrazol-4-yl]-2-(trifluoromethyl)-4H-pyrido[1,2-a]pyrimidin-4-one] had a negative logarithm of the IC50 (pIC50) of 8.05.
The molecule `[2H]C([2H])([2H])n1c(=O)ccn2c(=O)c(-c3ccc(OCC(F)(F)F)cc3)c(C(F)(F)F)nc12` [Example 11-1, 1-(Methyl-d3)-7-(4-(2,2,2-trifluoroethoxy)phenyl)-8-(trifluoromethyl)-2H-pyrimido[1,2-a]pyrimidine-2,6(1H)-dione] gave a pIC50 of 7.32.
Under `O=c1c(-c2cnn(CC(F)(F)C(F)(F)F)c2)c(C(F)(F)F)nc2ccc(F)cn12` [Example 39-23, 7-fluoro-3-[1-(2,2,3,3,3-pentafluoropropyl)-1H-pyrazol-4-yl]-2-(trifluoromethyl)-4H-pyrido[1,2-a]pyrimidin-4-one] stands 8.68; under `O=c1c(-c2ccc(OCC(F)(F)F)c(Cl)c2)c(C(F)(F)F)nc2ccccn12` [Example 5-2, 3-(3-chloro-4-(2,2,2-trifluoroethoxy)phenyl)-2-(trifluoromethyl)-4H-pyrido[1,2-a]pyrimidin-4-one], 6.80; under `COc1ccn2c(=O)c(-c3cnc(OCC(F)(F)F)nc3)c(C(F)(F)F)nc2c1` [Example 37, 8-Methoxy-3-[2-(2,2,2-trifluoroethoxy)pyrimidin-5-yl]-2-(trifluoromethyl)-4H-pyrido[1,2-a]pyrimidin-4-one], 7.06.
Under `Cc1cnn2c(=O)c(-c3cnn(CCC(F)(F)F)c3)c(C(F)(F)F)nc2c1` [Example 39-44, 8-methyl-2-(trifluoromethyl)-3-[1-(3,3,3-trifluoropropyl)-1H-pyrazol-4-yl]-4H-pyrimido[1,2-b)pyridazin-4-one] stands 6.62; under `COc1ccn2c(=O)c(-c3cnn(-c4ccc(F)cc4)c3)c(C(F)(F)F)nc2c1` [Example 1-17, 3-(1-(4-fluorophenyl)-1H-pyrazol-4-yl)-8-methoxy-2-(trifluoromethyl)-4H-pyrido[1,2-a]pyrimidin-4-one], 7.86; under `C[S@@+]([O-])c1ccn2c(=O)c(-c3ccc(OCC(F)(F)F)cc3)c(C(F)(F)F)nc2c1` [Example 15-2, 8-((R)-methylsulfinyl)-3-(4-(2,2,2-trifluoroethoxy)phenyl)-2-(trifluoromethyl)-4H-pyrido[1,2-a]pyrimidin-4-one], 6.25.
The molecule `CC(C)(O)c1ccn2c(=O)c(-c3cnn(CC(F)(F)C(F)(F)F)c3)c(C(F)(F)F)nc2c1` [Example 39-7, 8-(2-hydroxypropan-2-yl)-3-[1-(2,2,3,3,3-pentafluoropropyl)-1H-pyrazol-4-yl]-2-(trifluoromethyl)-4H-pyrido[1,2-a]pyrimidin-4-one] gave a pIC50 of 5.84.
The result for `CC(=O)Nc1ccn2c(=O)c(-c3cnn(CC(F)(F)C(F)(F)F)c3)c(C(F)(F)F)nc2c1` [Example 1-82, N-(4-oxo-3-(1-(2,2,3,3,3-pentafluoropropyl)-1H-pyrazol-4-yl)-2-(trifluoromethyl)-4H-pyrido[1,2-a]pyrimidin-8-yl)acetamide] reads 7.25.
